#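 Cultured in 96-well plates, cells were exposed to test compound for 48 hours across five concentrations. GI50 is the concentration that inhibits growth by half. The concentration for full growth arrest is given as TGI.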
# Assays:
# Assay in all cases: NCI tumour cell line growth inhibition, 48 h
# [1] = test system: SK-MEL-5 melanoma
# [2] = test system: SF-268 CNS
# [3] = test system: SNB-19 CNS
# [4] = test system: MCF7 breast
# [5] = test system: SK-MEL-28 melanoma
# [6] = test system: SR leukemia
# [7] = test system: SN12C renal
# [8] = test system: MDA-MB-435
# [9] = test system: EKVX NSCLC
# [10] = test system: UO-31 renal
# [11] = test system: RPMI-8226 leukemia
# [12] = test system: SNB-75 CNS
# [13] = test system: UACC-62 melanoma
# [14] = test system: DU-145 prostate
# [15] = test system: K-562 leukemia
# [16] = test system: SF-295 CNS
# [17] = test system: HCT-15 colon
# [18] = test system: OVCAR-8 ovarian
# [19] = test system: CCRF-CEM leukemia
# [20] = test system: PC-3 prostate
# [21] = test system: HCT-116 colon
# [22] = test system: U251 CNS
# [23] = test system: MOLT-4 leukemia
# [24] = test system: HT29 colon
# [25] = test system: IGROV1 ovarian
# [26] = test system: SK-MEL-2 melanoma
# [27] = test system: NCI/ADR-RES ovarian
# [28] = test system: SF-539 CNS
# [29] = test system: SW-620 colon
# [30] = test system: MDA-N
# [31] = test system: KM12 colon
# [32] = test system: HS 578T breast
# [33] = test system: HOP-62 NSCLC
# [34] = test system: NCI-H226 lung
# [35] = test system: MALME-3M melanoma
# [36] = test system: OVCAR-3 ovarian
# [37] = test system: UACC-257 melanoma
# [38] = test system: LOX IMVI melanoma
# [39] = test system: NCI-H23 lung
# [40] = test system: A498 renal
# [41] = test system: OVCAR-4 ovarian
# [42] = test system: ACHN renal
# [43] = test system: COLO 205 colon
# [44] = test system: 786-0 renal
# [45] = test system: OVCAR-5 ovarian
# [46] = test system: TK-10 renal
# [47] = test system: SK-OV-3 ovarian
# [48] = test system: M14 melanoma
# [49] = test system: A549 NSCLC
# [50] = test system: MDA-MB-231 breast
# [51] = test system: HL-60(TB) leukemia
# [52] = test system: T-47D breast
# [53] = test system: RXF 393 renal
# [54] = test system: BT-549 breast
# [55] = test system: NCI-H460 lung
# [56] = test system: CAKI-1 renal
# [57] = test system: HCC-2998 colon
# [58] = test system: NCI-H522 lung
# [59] = test system: HOP-92 NSCLC
compound,measurement,setting,value
CC(=O)Oc1cc2oc(=O)cc(C)c2cc1OC(C)=O,TGI,[1],> 100 µM
same,TGI,[2],> 100 µM
same,TGI,[3],> 100 µM
same,TGI,[4],> 100 µM
same,TGI,[5],> 100 µM
same,TGI,[6],> 100 µM
same,TGI,[7],> 100 µM
same,TGI,[8],> 100 µM
same,TGI,[9],> 100 µM
same,TGI,[10],> 100 µM
same,TGI,[11],> 100 µM
same,TGI,[12],> 100 µM
same,TGI,[13],> 100 µM
same,TGI,[14],> 100 µM
same,TGI,[15],> 100 µM
same,TGI,[16],> 100 µM
same,TGI,[17],> 100 µM
same,TGI,[18],> 100 µM
same,TGI,[19],> 100 µM
same,TGI,[20],> 100 µM
same,TGI,[21],> 100 µM
same,TGI,[22],> 100 µM
same,TGI,[23],> 100 µM
same,TGI,[24],> 100 µM
same,TGI,[25],> 100 µM
same,TGI,[26],> 100 µM
same,TGI,[27],> 100 µM
same,TGI,[28],> 100 µM
same,TGI,[29],> 100 µM
same,TGI,[30],> 100 µM
same,TGI,[31],> 100 µM
same,TGI,[32],> 100 µM
same,TGI,[33],> 100 µM
same,TGI,[34],> 100 µM
same,TGI,[35],> 100 µM
same,TGI,[36],> 100 µM
same,TGI,[37],> 100 µM
same,TGI,[38],> 100 µM
same,TGI,[39],> 100 µM
same,TGI,[40],> 100 µM
same,TGI,[41],> 100 µM
same,TGI,[42],> 100 µM
same,TGI,[43],> 100 µM
same,TGI,[44],> 100 µM
same,TGI,[45],> 100 µM
same,TGI,[46],> 100 µM
same,TGI,[47],> 100 µM
same,TGI,[48],> 100 µM
same,TGI,[49],> 100 µM
same,TGI,[50],> 100 µM
COc1ccc(C(O)c2cc3c(N)c(C(=O)Nc4ccc(Br)cc4)sc3nc2C)cc1 (stereo unspecified),GI50,[1],3.16 µM
same,TGI,[1],11.4 µM
same,GI50,[2],3.74 µM
same,TGI,[2],18.5 µM
same,GI50,[3],3.7 µM
same,TGI,[3],60.3 µM
same,GI50,[4],1.63 µM
same,TGI,[4],15.2 µM
same,GI50,[5],5.16 µM
same,TGI,[5],> 100 µM
same,GI50,[6],0.594 µM
same,TGI,[6],> 100 µM
same,GI50,[7],3.66 µM
same,TGI,[7],17.3 µM
same,GI50,[51],2.41 µM
same,TGI,[51],13.5 µM
same,GI50,[8],0.492 µM
same,TGI,[8],2.76 µM
same,GI50,[9],3.29 µM
same,TGI,[9],35 µM
same,GI50,[10],4.22 µM
same,TGI,[10],21.3 µM
same,GI50,[11],2.32 µM
same,TGI,[11],19.7 µM
same,GI50,[12],2.18 µM
same,TGI,[12],6.22 µM
same,GI50,[52],3.14 µM
same,TGI,[52],39.7 µM
same,GI50,[13],2.49 µM
same,TGI,[13],29.1 µM
same,GI50,[53],2.51 µM
same,TGI,[53],9.19 µM
same,GI50,[14],2.52 µM
same,TGI,[14],6.18 µM
same,GI50,[15],1.13 µM
same,TGI,[15],> 100 µM
same,GI50,[16],2.55 µM
same,TGI,[16],8.81 µM
same,GI50,[54],3.02 µM
same,TGI,[54],18.6 µM
same,GI50,[17],1.57 µM
same,TGI,[17],13.4 µM
same,GI50,[18],3.15 µM
same,TGI,[18],12.9 µM
same,GI50,[19],2.78 µM
same,TGI,[19],> 100 µM
same,GI50,[20],3.2 µM
same,TGI,[20],25 µM
same,GI50,[21],2.4 µM
same,TGI,[21],11.3 µM
same,GI50,[22],2.5 µM
same,TGI,[22],11.2 µM
same,GI50,[23],3.27 µM
same,TGI,[23],> 100 µM
same,GI50,[24],2.4 µM
same,TGI,[24],6.51 µM
same,GI50,[25],3.37 µM
same,TGI,[25],26 µM
same,GI50,[26],7.69 µM
same,TGI,[26],47.1 µM
same,GI50,[27],3.38 µM
same,TGI,[27],19 µM
same,GI50,[55],2.16 µM
same,TGI,[55],4.66 µM
same,GI50,[28],2.08 µM
same,TGI,[28],4.98 µM
same,GI50,[29],3.37 µM
same,TGI,[29],25.9 µM
same,GI50,[31],2.45 µM
same,TGI,[31],11.1 µM
same,GI50,[32],2.19 µM
same,TGI,[32],5.63 µM
same,GI50,[33],3.02 µM
same,TGI,[33],11 µM
same,GI50,[56],3.5 µM
same,TGI,[56],14.2 µM
same,GI50,[34],2.58 µM
same,TGI,[34],9.16 µM
same,GI50,[35],2.43 µM
same,TGI,[35],13 µM
same,GI50,[36],2.19 µM
same,TGI,[36],4.64 µM
same,GI50,[37],3.51 µM
same,TGI,[37],34.6 µM
same,GI50,[38],2.75 µM
same,TGI,[38],11.6 µM
same,GI50,[39],6.11 µM
same,TGI,[39],82.2 µM
same,GI50,[40],3.54 µM
same,TGI,[40],19.8 µM
same,GI50,[57],2.68 µM
same,TGI,[57],10.4 µM
same,GI50,[41],2.01 µM
same,TGI,[41],6.57 µM
same,GI50,[42],3.93 µM
same,TGI,[42],16.4 µM
same,GI50,[58],2.62 µM
same,TGI,[58],16 µM
same,GI50,[43],3.74 µM
same,TGI,[43],27 µM
same,GI50,[59],2.74 µM
same,TGI,[59],23 µM
same,GI50,[44],7.58 µM
same,TGI,[44],29.3 µM
same,GI50,[45],3.58 µM
same,TGI,[45],31.9 µM
same,GI50,[46],8.18 µM
same,TGI,[46],34.3 µM
same,GI50,[47],3.04 µM
same,TGI,[47],12.9 µM
same,GI50,[48],2.35 µM
same,TGI,[48],20 µM
same,GI50,[49],2.64 µM
same,TGI,[49],8.01 µM
same,GI50,[50],3.18 µM
same,TGI,[50],16.9 µM
